Reference: patent publication US12077501B2, “Compounds and compositions for intracellular delivery of agents” (ModernaTX, Inc., priority 2017, dated 2024)

Legend:
[1] = Particle size and polydispersity index of nanoparticle compositions (Zetasizer Nano ZS); format: physicochemical; conditions: summary of Table 1
Procedure: A Zetasizer Nano ZS (Malvem Instruments Ltd, Malvem, Worcestershire, UK) can be used to determine the particle size, the polydispersity index (PDI) and the zeta potential of the nanoparticle compositions in 1×PBS in determining particle size and 15 mM PBS in determining zeta potential.

[2] = Encapsulation efficiency of RNA (QUANT-IT RIBOGREEN RNA assay); format: physicochemical; conditions: summary of Table 1
Procedure: For nanoparticle compositions including an RNA, a QUANT-IT™ RIBOGREEN® RNA assay (Invitrogen Corporation Carlsbad, CA) can be used to evaluate the encapsulation of an RNA by the nanoparticle composition. The samples are diluted to a concentration of approximately 5 μg/mL in a TE buffer solution (10 mM Tris-HCl, 1 mM EDTA, pH 7.5). 50 μL of the diluted samples are transferred to a polystyrene 96 well plate and either 50 μL of TE buffer or 50 μL of a 2% Triton X-100 solution is added to the wells. The plate is incubated at a temperature of 37° C. for 15 minutes. The RIBOGREEN® reagent is diluted 1:100 in TE buffer, and 100 μL of this solution is added to each well. The fluorescence intensity can be measured using a fluorescence plate reader (Wallac Victor 1420 Multilablel Counter; Perkin Elmer, Waltham, MA) at an excitation wavelength of, for example, about 480 nm and an emission wavelength of, for example, about 520 nm. The fluorescence values of the reagent blank are subtracted from that of each of the samples and the percentage of free RNA is determined by dividing the fluorescence intensity of the intact sample (without addition of Triton X-100) by the fluorescence value of the disrupted sample (caused by the addition of Triton X-100).

[3] = pKa of nanoparticle compositions; format: physicochemical; conditions: Table 1b
[4] = Lipid clearance: % dose remaining in liver of CD-1 mice; format: in vivo; conditions: intravenous, 0.5 mg/kg, CD-1 mouse, Table 8a
Description: In contrast, hEPO expression in rats induced by administration of a nanoparticle composition including a compound according to one of formulae (I), (Ia1)-(Ia6), (Ib), (II), (IIa), (III), and (IIIa) was substantially […] than that measured for MC3. […] Tables 7c and 7d show additional protein expressions and clearance data from compositions with various compounds disclosed herein as compared to with MC3. Tables 7e, 7f and 7g show hEPO expression data in CD-1 mice at a dose of 0.5 mpk.

| particle size ranking amongst the compositions of Tables 1 and 1a [1] | encapsulation efficiency ranking amongst the compositions of Tables 1 and 1a [2] | pKa [3] | % Dose Remaining 6 hr [4] [%] | % Dose Remaining 24 hr [4] [%] | SMILES |
| --- | --- | --- | --- | --- | --- |
|  |  | 6.75 | 56.30 | 57.20 | CCCCCCCCCN(CCCCCCCCC)CCN(CCCCCCCCC)CC(=O)N1CCC(CN(CCCCCCCCC)CCCCCCCCC)C1 (stereo not shown) [Compound 70, 2-((2-(Dinonylamino)ethyl)(nonyl)amino)-1-(3-((dinonylamino)methyl)pyrrolidin-1-yl)ethan-1-one] |
|  |  | 7.19 |  |  | CCCCCCCCCN(CCCCCCCCC)CCN(CCCCCCCCC)CC(=O)N1CCN(C(=O)CN(CCCC(=O)OCCCCC)CCCC(=O)OCCCCC)CC1 [Compound 72, Dipentyl 4,4′-((2-(4-(N-(2-(dinonylamino)ethyl)-N-nonylglycyl)piperazin-1-yl)-2-oxoethyl)azanediyl)dibutyrate] |
|  |  | 6.65 | 68.53 | 64.75 | CCCCCCCCCN(CCCCCCCCC)CCC1CCCN(C(=O)CN(CCCCCCCCC)CCN(CCCCCCCCC)CCCCCCCCC)C1 (stereo not shown) [Compound 73, 2-((2-(Dinonylamino)ethyl)(nonyl)amino)-1-(3-(2-(dinonylamino)ethyl)piperidin-1-yl)ethan-1-one] |
|  |  | 6.78 | 23.78 | 25.25 | CCCCCCCCCN(CCCC(=O)OCCCCC)CCC1CCCN(C(=O)CN(CCCCCCCCC)CCN(CCCCCCCCC)CCCCCCCCC)C1 (stereo not shown) [Compound 80, Pentyl 4-((2-(1-(N-(2-(dinonylamino)ethyl)-N-nonylglycyl)piperidin-3-yl)ethyl)(nonyl)amino)butanoate] |
|  |  | 7.22 | 15.28 | 19.27 | CCCCCCCCCN(CCCC(=O)OCCCCC)CCC1CCN(C(=O)CN(CCCCCCCCC)CCN(CCCCCCCCC)CCCCCCCCC)C1 (stereo not shown) [Compound 81, Pentyl 4-((2-(1-(N-(2-(dinonylamino)ethyl)-N-nonylglycyl)pyrrolidin-3-yl)ethyl)(nonyl)amino)butanoate] |
|  |  | 7.05 | 37.85 | 38.66 | CCCCCCCCCN(CCCCCCCCC)CCN(CCCCCCCCC)CC(=O)N1CCC(CN(CCCCCCCCC)CCCC(=O)OCCCCC)C1 (stereo not shown) [Compound 82, Pentyl 4-(((1-(N-(2-(dinonylamino)ethyl)-N-nonylglycyl)pyrrolidin-3-yl)methyl)(nonyl)amino)butanoate] |
|  |  | 6.72 | 31.32 | 30.54 | CCCCCCCCCN(CCCC(=O)OCCCCC)CCC1CCN(C(=O)CN(CCCCCCCCC)CCN(CCCCCCCCC)CCCCCCCCC)CC1 [Compound 83, Pentyl 4-((2-(1-(N-(2-(dinonylamino)ethyl)-N-nonylglycyl)piperidin-4-yl)ethyl)(nonyl)amino)butanoate] |
|  |  | 7.01 | 21.23 | 20.86 | CCCCCCCCCN(CCCC(=O)OCCCCC)CCCC1CCN(C(=O)CCN(CCCCCCCCC)CCN(CCCCCCCCC)CCCCCCCCC)CC1 [Compound 84, Pentyl 4-((3-(1-(3-((2-(dinonylamino)ethyl)(nonyl)amino)propanoyl)piperidin-4-yl)propyl)(nonyl)amino)butanoate] |

Further lines, the compound ahead of its results:

| SMILES | particle size ranking amongst the compositions of Tables 1 and 1a [1] | encapsulation efficiency ranking amongst the compositions of Tables 1 and 1a [2] | pKa [3] | % Dose Remaining 6 hr [4] [%] | % Dose Remaining 24 hr [4] [%] |
| --- | --- | --- | --- | --- | --- |
| CCCCCCCCCCCCN(CCCCCCCCCCCC)CCN1CCN(CCN(CCCCCCCCCCCC)C(=O)CN(CCCCCCCCCCCC)CCCCCCCCCCCC)CC1 [Compound 1, 2-(Didodecylamino)-N-(2-(4-(2-(didodecylamino)ethyl)piperazin-1-yl)ethyl)-N-dodecylacetamide] | largest particles | lowest |  |  |  |
| CCCCC/C=C\CCCCCN(CCCCCCCCCCCC)CCN1CCN(CCN(CCCCCCCCCCCC)CCN(CCCCCCCCCCCC)CCCCCCCCCCCC)CC1 [Compound 24, (Z)—N^1-(2-(4-(2-(Dodec-6-en-1-yl(dodecyl)amino)ethyl)piperazin-1-yl)ethyl)-N^1,N^2,N^2-tridodecylethane-1,2-diamine] |  | lowest |  |  |  |
| CCCCC/C=C\C/C=C\CCCCCCCCN(CCCCCCCC/C=C\C/C=C\CCCCC)CCN(CCCCCCCC/C=C\C/C=C\CCCCC)CCN1CCN(CCN(CCCCCCCCCCCC)CCCCCCCCCCCC)CC1 [Compound 34, N^1-(2-(4-(2-(Didodecylamino)ethyl)piperazin-1-yl)ethyl)-N^1,N^2,N^2-tri((9Z,12Z)-octadeca-9,12-dien-1-yl)ethane-1,2-diamine] | smallest particles |  |  |  |  |
| CCCCCCCCCN(CCCCCCCCC)CCN(CCCCCCCCC)CCN1CCNCC1 [Compound 36, N^1,N^1,N^2-Trinonyl-N^2-(2-(piperazin-1-yl)ethyl)ethane-1,2-diamine] |  | highest |  |  |  |
| CCCCCCCCCCCCN(CCCCCCCCCCCC)CCN(CCCCCCCCCCCC)CCN1CCNCC1 [Compound 37, N^1,N^1,N^2-Tridodecyl-N^2-(2-(piperazin-1-yl)ethyl)ethane-1,2-diamine] |  | highest |  |  |  |
| CCCCCCCC/C=C\CCCCCCCCN(CCCCCCCC/C=C\CCCCCCCC)CCN(CCCCCCCC/C=C\CCCCCCCC)CCN1CCNCC1 [Compound 40, N^1,N^1,N^2-Tri((Z)-octadec-9-en-1-yl)-N^2-(2-(piperazin-1-yl)ethyl)ethane-1,2-diamine] |  | highest |  |  |  |
| CCCCC/C=C\C/C=C\CCCCCCCCN(CCCCCCCC/C=C\C/C=C\CCCCC)CCN(CCCCCCCC/C=C\C/C=C\CCCCC)CCN1CCNCC1 [Compound 41, N^1,N^1,N^2-Tri((9Z,12Z)-octadeca-9,12-dien-1-yl)-N^2-(2-(piperazin-1-yl)ethyl)ethane-1,2-diamine] |  | highest |  |  |  |
| CCCCCCCCCN(CCCCCCCCC)CCN(CCCCCCCCC)CCC1CCN(C(=O)CN(CCCCCCCCC)CCCCCCCCC)CC1 [Compound 50, 2-(Dinonylamino)-1-(4-(2-((2-(dinonylamino)ethyl)(nonyl)amino)ethyl)piperidin-1-yl)ethan-1-one] | smallest particles |  |  |  |  |
| CCCCCCCCCN(CCCCCCCCC)CCN(CCCCCCCCC)CC(=O)N1CCN(C(=O)CN(CCCCCCCCC)CCCCCCC(=O)OCC)CC1 [Compound 53, Ethyl 7-((2-(4-(N-(2-(dinonylamino)ethyl)-N-nonylglycyl)piperazin-1-yl)-2-oxoethyl)(nonyl)amino)heptanoate] |  |  | 6.91 |  |  |
| CCCCCCCCCN(CCCCCCCCC)CCN(CCCCCCCCC)CC(=O)N1CCN(C(=O)CN(CCCCCCCCC)CCCCCC(=O)OCCC)CC1 [Compound 54, Propyl 6-((2-(4-(N-(2-(dinonylamino)ethyl)-N-nonylglycyl)piperazin-1-yl)-2-oxoethyl)(nonyl)amino)hexanoate] |  |  | 6.88 |  |  |
| CCCCCCCCCN(CCCCCCCCC)CCN(CCCCCCCCC)CC(=O)N1CCN(C(=O)CN(CCCCCCCCC)CCCCC(=O)OCCCC)CC1 [Compound 55, Butyl 5-((2-(4-(N-(2-(dinonylamino)ethyl)-N-nonylglycyl)piperazin-1-yl)-2-oxoethyl)(nonyl)amino)pentanoate] |  |  | 6.96 |  |  |
| CCCCCCCCCN(CCCCCCCC(=O)OC)CCC1CCN(C(=O)CN(CCCCCCCCC)CCN(CCCCCCCCC)CCCCCCCCC)CC1 [Compound 57, Methyl 8-((2-(1-(N-(2-(dinonylamino)ethyl)-N-nonylglycyl)piperidin-4-yl)ethyl)(nonyl)amino)octanoate] |  |  | 6.73 |  |  |
| CCCCCCCCCN(CCCCCCC(=O)OCC)CCC1CCN(C(=O)CN(CCCCCCCCC)CCN(CCCCCCCCC)CCCCCCCCC)CC1 [Compound 58, Ethyl 7-((2-(1-(N-(2-(dinonylamino)ethyl)-N-nonylglycyl)piperidin-4-yl)ethyl)(nonyl)amino)heptanoate] |  |  | 6.7 |  |  |
| CCCCCCCCCN(CCCCCC(=O)OCCC)CCC1CCN(C(=O)CN(CCCCCCCCC)CCN(CCCCCCCCC)CCCCCCCCC)CC1 [Compound 59, Propyl 6-((2-(1-(N-(2-(dinonylamino)ethyl)-N-nonylglycyl)piperidin-4-yl)ethyl)(nonyl)amino)hexanoate] |  |  | 6.68 |  |  |
| CCCCCCCCCN(CCCC(=O)OCCCCC)CCC(=O)N1CCN(C(=O)CCN(CCCCCCCCC)CCN(CCCCCCCCC)CCCCCCCCC)CC1 [Compound 62, Pentyl 4-((3-(4-(3-((2-(dinonylamino)ethyl)(nonyl)amino)propanoyl)piperazin-1-yl)-3-oxopropyl)(nonyl)amino)butanoate] |  |  | 7.56 | 16.99 | 14.36 |
| CCCCCCCCCN(CCCCCCCCC)CCC1CCN(C(=O)CN(CCCCCCCCC)CCN(CCCCCCCCC)CCCCCCCCC)C1 (stereo not shown) [Compound 69, 2-((2-(Dinonylamino)ethyl)(nonyl)amino)-1-(3-(2-(dinonylamino)ethyl)pyrrolidin-1-yl)ethan-1-one] |  |  | 7.01 | 59.21 | 52.03 |
